Test results from US11339130B1 (Blade Therapeutics, Inc., priority 2016, dated 2022).

Key:
Human Calpain 2/NS1 = target: T1, Human Calpain 2/NS1 (Homo sapiens, UniProt P17655); assay: Calpain inhibition continuous fluorescence (FRET) assay, Human Calpain 2/NS1; format: biochemical; conditions: Column B; read-out: Human Calpain 2/NS1 IC50
T1 sequence (P17655 1-700): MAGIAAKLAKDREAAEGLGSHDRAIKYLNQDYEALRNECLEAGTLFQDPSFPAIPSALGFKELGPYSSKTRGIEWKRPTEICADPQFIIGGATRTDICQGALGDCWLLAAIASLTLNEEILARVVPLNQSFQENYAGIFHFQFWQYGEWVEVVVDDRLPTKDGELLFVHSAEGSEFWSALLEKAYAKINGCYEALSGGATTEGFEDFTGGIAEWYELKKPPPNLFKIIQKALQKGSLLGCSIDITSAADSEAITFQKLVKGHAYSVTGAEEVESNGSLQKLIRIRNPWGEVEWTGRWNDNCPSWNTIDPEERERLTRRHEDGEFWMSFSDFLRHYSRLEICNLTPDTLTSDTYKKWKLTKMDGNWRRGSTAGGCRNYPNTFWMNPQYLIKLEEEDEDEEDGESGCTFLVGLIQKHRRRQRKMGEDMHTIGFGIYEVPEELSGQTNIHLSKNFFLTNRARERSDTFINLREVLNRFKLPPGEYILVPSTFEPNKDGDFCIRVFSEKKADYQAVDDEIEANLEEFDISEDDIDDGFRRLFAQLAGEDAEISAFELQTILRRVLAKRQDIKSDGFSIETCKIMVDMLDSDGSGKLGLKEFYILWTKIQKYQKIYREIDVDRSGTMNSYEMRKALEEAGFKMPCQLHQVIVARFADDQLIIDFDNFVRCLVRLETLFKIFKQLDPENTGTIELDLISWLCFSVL
T1 sequence (P04632 1-268 partner): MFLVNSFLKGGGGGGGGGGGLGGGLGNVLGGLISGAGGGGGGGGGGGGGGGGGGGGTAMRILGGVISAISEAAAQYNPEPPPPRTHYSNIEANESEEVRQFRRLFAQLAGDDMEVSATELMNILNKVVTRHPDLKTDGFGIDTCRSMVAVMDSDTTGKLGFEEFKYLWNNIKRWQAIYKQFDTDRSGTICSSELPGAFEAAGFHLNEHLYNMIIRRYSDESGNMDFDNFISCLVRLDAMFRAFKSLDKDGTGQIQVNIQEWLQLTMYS
Method in brief: (§1)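 Fluorescence increase from the cleaved 5-FAM/QXL 520 substrate, read at 490/520 nm, gave activity. Calcium was supplied with the substrate to activate the enzyme in situ after a 25C enzyme-inhibitor preincubation, and IC50s were fit from initial slopes.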

[1] = system: Calpain activity in SH-SY5Y cells; assay: SH-SY5Y + AMC fluorescence assay (Suc-LLVY-AMC substrate); format: cell-based; conditions: Column E, read-out: SH-SY5Y + AMC IC50
Human Calpain 9/NS1 = target: T2, Human Calpain 9/NS1 (Homo sapiens, UniProt O14815); assay: Calpain inhibition continuous fluorescence (FRET) assay, Human Calpain 9/NS1; format: biochemical; conditions: Column C; read-out: Human Calpain 9/NS1 IC50
T2 sequence (O14815 1-690): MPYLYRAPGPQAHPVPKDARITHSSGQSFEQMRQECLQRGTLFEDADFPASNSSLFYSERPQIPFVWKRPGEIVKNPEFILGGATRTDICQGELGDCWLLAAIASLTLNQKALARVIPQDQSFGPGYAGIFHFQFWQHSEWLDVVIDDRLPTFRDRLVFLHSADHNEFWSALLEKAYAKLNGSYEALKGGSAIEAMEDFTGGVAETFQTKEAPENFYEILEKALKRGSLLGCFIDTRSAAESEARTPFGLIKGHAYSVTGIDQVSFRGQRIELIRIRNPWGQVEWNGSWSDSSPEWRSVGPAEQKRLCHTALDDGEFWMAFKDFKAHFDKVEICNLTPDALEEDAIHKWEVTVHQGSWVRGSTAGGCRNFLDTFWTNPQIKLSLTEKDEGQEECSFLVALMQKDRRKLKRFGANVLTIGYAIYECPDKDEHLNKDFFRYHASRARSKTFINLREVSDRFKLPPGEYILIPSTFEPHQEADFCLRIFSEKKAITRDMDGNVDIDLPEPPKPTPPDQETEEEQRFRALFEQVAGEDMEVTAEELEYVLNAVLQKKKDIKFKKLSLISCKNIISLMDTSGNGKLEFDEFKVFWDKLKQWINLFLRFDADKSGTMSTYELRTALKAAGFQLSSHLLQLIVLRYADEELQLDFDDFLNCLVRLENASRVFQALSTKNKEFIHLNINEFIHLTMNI
T2 sequence (P04632 1-268 partner): T1 sequence (P04632 1-268 partner)
Method in brief: as §1

[2] = system: Calpain activity in SH-SY5Y cells (SBDP-150); assay: SH-SY5Y Spectrin western blot assay (SBDP-150 breakdown product, A23187-induced); format: cell-based; conditions: Homo sapiens; Column D; SH-SY5Y cells, A23187-induced SBDP-150; read-out: SH-SY5Y Spectrin IC50
Human Calpain 1/NS1 = target: T3, Human Calpain 1/NS1 (Homo sapiens, UniProt P07384); assay: Calpain inhibition continuous fluorescence (FRET) assay, Human Calpain 1/NS1; format: biochemical; conditions: Column A; read-out: Human Calpain 1/NS1 IC50
T3 sequence (P07384 1-714): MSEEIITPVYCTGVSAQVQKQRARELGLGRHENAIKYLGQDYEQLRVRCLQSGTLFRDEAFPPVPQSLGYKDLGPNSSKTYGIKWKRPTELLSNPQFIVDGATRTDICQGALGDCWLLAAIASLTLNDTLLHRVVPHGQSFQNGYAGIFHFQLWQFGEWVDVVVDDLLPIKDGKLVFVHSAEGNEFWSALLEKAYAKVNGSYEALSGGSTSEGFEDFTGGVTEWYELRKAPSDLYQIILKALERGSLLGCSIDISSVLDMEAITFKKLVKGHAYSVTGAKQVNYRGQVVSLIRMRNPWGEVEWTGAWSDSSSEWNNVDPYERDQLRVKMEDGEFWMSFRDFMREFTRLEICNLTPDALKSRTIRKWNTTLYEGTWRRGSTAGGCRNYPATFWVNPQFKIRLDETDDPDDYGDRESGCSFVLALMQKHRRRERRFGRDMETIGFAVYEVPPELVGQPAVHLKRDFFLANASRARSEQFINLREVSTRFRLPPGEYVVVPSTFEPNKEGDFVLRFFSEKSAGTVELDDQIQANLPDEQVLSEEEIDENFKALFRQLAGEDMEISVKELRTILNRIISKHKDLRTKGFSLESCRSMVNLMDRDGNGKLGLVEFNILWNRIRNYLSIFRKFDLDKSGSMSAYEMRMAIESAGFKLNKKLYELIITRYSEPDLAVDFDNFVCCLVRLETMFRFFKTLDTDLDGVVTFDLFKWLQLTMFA
T3 sequence (P04632 1-268 partner): T1 sequence (P04632 1-268 partner)
Method in brief: as §1

Row | Compound | IC50 (Human Calpain 2/NS1) | IC50 [1] | IC50 (Human Calpain 9/NS1) | IC50 [2] | IC50 (Human Calpain 1/NS1)
1 | Cn1cc(C(=O)N[C@@H](Cc2ccccc2)C(=O)C(N)=O)c(-c2ccncc2)n1 [Compound 170, (S)—N-(4-amino-3,4-dioxo-1-phenylbutan-2-yl)-1-methyl-3-(pyridin-4-yl)-1H-pyrazole-4-carboxamide] | < 3 µM | > 25 µM | < 3 µM | > 25 µM | < 3 µM
2 | Cc1cccc(-c2c(C(=O)N[C@@H](Cc3ccccc3)C(=O)C(N)=O)cnn2C)c1 [Compound 172, (S)—N-(4-amino-3,4-dioxo-1-phenylbutan-2-yl)-1-methyl-5-(m-tolyl)-1H-pyrazole-4-carboxamide] | < 3 µM | > 25 µM | < 3 µM | < 10 µM | < 3 µM
3 | Cn1ncc(C(=O)N[C@@H](Cc2ccccc2)C(=O)C(N)=O)c1-c1cnccn1 [Compound 174] | < 3 µM | > 25 µM | < 3 µM | > 25 µM | < 3 µM
4 | Cn1ncc(C(=O)N[C@@H](Cc2ccccc2)C(=O)C(N)=O)c1-c1ccncn1 [Compound 175, (S)—N-(4-amino-3,4-dioxo-1-phenylbutan-2-yl)-1-methyl-5-(pyrimidin-4-yl)-1H-pyrazole-4-carboxamide] | < 3 µM | < 10 µM | < 3 µM | > 25 µM | < 3 µM
5 | COc1cccc(-c2nn(C)cc2C(=O)N[C@@H](Cc2ccccc2)C(=O)C(N)=O)c1 [Compound 177, (S)—N-(4-amino-3,4-dioxo-1-phenylbutan-2-yl)-3-(3-methoxyphenyl)-1-methyl-1H-pyrazole-4-carboxamide] | < 3 µM | < 10 µM | < 3 µM | 10 to 25 µM | < 3 µM
6 | Cn1cc(C(=O)N[C@@H](Cc2ccccc2)C(=O)C(N)=O)c(-c2cccc(F)c2)n1 [Compound 178, (S)—N-(4-amino-3,4-dioxo-1-phenylbutan-2-yl)-3-(3-fluorophenyl)-1-methyl-1H-pyrazole-4-carboxamide] | < 3 µM | < 10 µM | < 3 µM | < 10 µM | < 3 µM
7 | CC(C)c1cccc(-c2nn(C)cc2C(=O)N[C@@H](Cc2ccccc2)C(=O)C(N)=O)c1 [Compound 180, (S)—N-(4-amino-3,4-dioxo-1-phenylbutan-2-yl)-3-(3-isopropylphenyl)-1-methyl-1H-pyrazole-4-carboxamide] | < 3 µM | 10 to 25 µM | < 3 µM | < 10 µM | < 3 µM
8 | Cn1cc(C(=O)N[C@@H](Cc2ccccc2)C(=O)C(N)=O)c(-c2cccc(C(F)(F)F)c2)n1 [Compound 183, (S)—N-(4-amino-3,4-dioxo-1-phenylbutan-2-yl)-1-methyl-3-(3-(trifluoromethyl)phenyl)-1H-pyrazole-4-carboxamide] | < 3 µM | 10 to 25 µM | < 3 µM | < 10 µM | < 3 µM
9 | Cn1cc(C(=O)N[C@@H](Cc2ccccc2)C(=O)C(N)=O)c(-c2cccc(C#N)c2)n1 [Compound 185, (S)—N-(4-amino-3,4-dioxo-1-phenylbutan-2-yl)-3-(3-cyanophenyl)-1-methyl-1H-pyrazole-4-carboxamide] | 3 to 10 µM | > 25 µM | 3 to 10 µM | > 25 µM | > 10 µM

Now from value to molecule:

Row | IC50 (Human Calpain 2/NS1) | IC50 [1] | IC50 (Human Calpain 9/NS1) | IC50 [2] | IC50 (Human Calpain 1/NS1) | Compound
10 | 3 to 10 µM | 10 to 25 µM | < 3 µM | > 25 µM | < 3 µM | Cc1ccccc1-c1nn(C)cc1C(=O)N[C@@H](Cc1ccccc1)C(=O)C(N)=O [Compound 171, (S)—N-(4-amino-3,4-dioxo-1-phenylbutan-2-yl)-1-methyl-3-(o-tolyl)-1H-pyrazole-4-carboxamide]
11 | < 3 µM | > 25 µM | < 3 µM | > 25 µM | < 3 µM | Cn1cc(C(=O)N[C@@H](Cc2ccccc2)C(=O)C(N)=O)c(-c2cncnc2)n1 [Compound 173, (S)—N-(4-amino-3,4-dioxo-1-phenylbutan-2-yl)-1-methyl-3-(pyrimidin-5-yl)-1H-pyrazole-4-carboxamide]
12 | < 3 µM | > 25 µM | < 3 µM | 10 to 25 µM | < 3 µM | Cn1cc(C(=O)N[C@@H](Cc2ccccc2)C(=O)C(N)=O)c(-c2ccc(F)cc2)n1 [Compound 179, (S)—N-(4-amino-3,4-dioxo-1-phenylbutan-2-yl)-3-(4-fluorophenyl)-1-methyl-1H-pyrazole-4-carboxamide]
13 | < 3 µM | < 10 µM | < 3 µM | < 10 µM | < 3 µM | Cn1cc(C(=O)N[C@@H](Cc2ccccc2)C(=O)C(N)=O)c(-c2ccccc2F)n1 [Compound 181, (S)—N-(4-amino-3,4-dioxo-1-phenylbutan-2-yl)-3-(2-fluorophenyl)-1-methyl-1H-pyrazole-4-carboxamide]
14 | < 3 µM | < 10 µM | < 3 µM | 10 to 25 µM | < 3 µM | CCc1cccc(-c2nn(C)cc2C(=O)N[C@@H](Cc2ccccc2)C(=O)C(N)=O)c1 [Compound 182, (S)—N-(4-amino-3,4-dioxo-1-phenylbutan-2-yl)-3-(3-ethylphenyl)-1-methyl-1H-pyrazole-4-carboxamide]
15 | 3 to 10 µM | > 25 µM | 3 to 10 µM | > 25 µM | 3 to 10 µM | Cn1cc(C(=O)N[C@@H](Cc2ccccc2)C(=O)C(N)=O)c(-c2cccc(C3CC3)c2)n1 [Compound 186, (S)—N-(4-amino-3,4-dioxo-1-phenylbutan-2-yl)-3-(3-cyclopropylphenyl)-1-methyl-1H-pyrazole-4-carboxamide]
